The source of these data is article PMC10536063 (ACS Omega, 2023).

The test system of data set [1] is MCF-10A (normal breast) cells. Briefly: MTT cytotoxicity bioassay against normal MCF-10A cells. It is filed as cell-based. Particulars: for IC50: Homo sapiens, MCF-10A, 48 h, read-out: IC50 ± SD, MCF-10A; for cytotoxicity versus normal MCF-10A cells (in words): MTT.
Data set [2] has as its system MCF-7 (breast cancer cells). Nature of the data set: MTT cytotoxicity bioassay against MCF-7. In kind it is cell-based, human. To be noted: read-out: IC50 ± SD, MCF-7, 48 h, mean ± SD, n = 3.
Another data set has as its target CDK-2 kinase (Homo sapiens, UniProt P24941). Nature of the data set: CDK-2 luminescence kinase inhibitory assay. It is filed as biochemical.
The next data set has as its target EGFR kinase (Homo sapiens, UniProt P00533). Briefly: EGFR-TK kinase inhibitory assay. It is filed as biochemical.

Sequence of EGFR kinase (P00533 25-1210): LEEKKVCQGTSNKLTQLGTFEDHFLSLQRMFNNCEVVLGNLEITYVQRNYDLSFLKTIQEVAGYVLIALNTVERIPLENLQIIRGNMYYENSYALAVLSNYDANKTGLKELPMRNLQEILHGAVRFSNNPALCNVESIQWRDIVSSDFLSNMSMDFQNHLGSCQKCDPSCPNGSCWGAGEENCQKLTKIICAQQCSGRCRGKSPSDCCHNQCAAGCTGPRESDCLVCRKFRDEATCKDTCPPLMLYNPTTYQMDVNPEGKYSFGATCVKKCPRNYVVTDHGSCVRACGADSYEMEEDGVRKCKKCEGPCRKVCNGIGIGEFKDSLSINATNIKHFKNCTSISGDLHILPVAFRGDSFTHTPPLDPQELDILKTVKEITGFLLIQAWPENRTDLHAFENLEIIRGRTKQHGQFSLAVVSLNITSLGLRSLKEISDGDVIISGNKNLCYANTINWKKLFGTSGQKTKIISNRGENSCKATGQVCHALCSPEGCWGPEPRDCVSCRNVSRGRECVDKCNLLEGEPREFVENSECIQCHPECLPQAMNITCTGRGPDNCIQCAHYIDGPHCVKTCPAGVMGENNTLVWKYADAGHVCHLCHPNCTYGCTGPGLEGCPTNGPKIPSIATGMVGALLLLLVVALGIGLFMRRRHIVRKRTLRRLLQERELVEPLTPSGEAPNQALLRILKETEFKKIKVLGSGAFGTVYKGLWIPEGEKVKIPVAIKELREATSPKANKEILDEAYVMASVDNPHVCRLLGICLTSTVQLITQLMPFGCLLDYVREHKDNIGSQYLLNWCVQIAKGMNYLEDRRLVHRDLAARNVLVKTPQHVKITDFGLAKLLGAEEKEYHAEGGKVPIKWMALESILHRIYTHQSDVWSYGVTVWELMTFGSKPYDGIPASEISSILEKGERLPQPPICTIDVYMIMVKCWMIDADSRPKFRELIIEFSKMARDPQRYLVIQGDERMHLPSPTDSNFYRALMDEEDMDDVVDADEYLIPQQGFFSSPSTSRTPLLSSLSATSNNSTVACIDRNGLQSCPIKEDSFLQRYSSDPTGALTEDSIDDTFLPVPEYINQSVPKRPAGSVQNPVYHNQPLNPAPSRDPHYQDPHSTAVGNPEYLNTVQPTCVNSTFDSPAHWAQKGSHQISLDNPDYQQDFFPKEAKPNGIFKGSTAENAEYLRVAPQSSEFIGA

Regarding `O=C(c1ccc2ccccc2c1)c1cn(-c2ccccc2)nc1C(=O)CBr` [Compound 2, 3-Bromoacetyl-4-(2-naphthoyl)-1-phenyl-1H-pyrazole], the half-maximal inhibitory concentration (IC50) (in general, the concentration at which inhibition is half-maximal) in data set [1] came to 37.5 ± 1.9 µM.
Regarding `O=C(c1ccc2ccccc2c1)c1cn(-c2ccccc2)nc1C1=Nn2cnnc2SC1` [Compound 4a, 6-(4-(2-Naphthoyl)-1-phenyl-1H-pyrazol-3-yl)-7H-[1,2,4]triazolo[3,4-b][1,3,4]thiadiazine], the IC50 in data set [1] is at least 50 µM.
In the case of `O=C(c1ccc2ccccc2c1)c1cn(-c2ccccc2)nc1C1=Nn2c(nnc2-c2ccccc2)SC1` [Compound 4b, 3-Phenyl-6-(4-(2-naphthoyl)-1-phenyl-1H-pyrazol-3-yl)-7H-[1,2,4]triazolo[3,4-b][1,3,4]-thiadiazine], the IC50 in data set [2] was 3.16 ± 0.29 µM; in data set [1] it was at least 50 µM; on CDK-2 kinase, 0.114 ± 0.0029 µM; on EGFR kinase, 0.0717 ± 0.0021 µM. The “cytotoxicity versus normal MCF-10A cells (in words)” value in data set [1] is given as “safe”.
In the case of `O=C(c1ccc2ccccc2c1)c1cn(-c2ccccc2)nc1C1=Nn2c(S)nnc2SC1` [Compound 4c, 6-(4-(2-Naphthoyl)-1-phenyl-1H-pyrazol-3-yl)-7H-[1,2,4]triazolo[3,4-b][1,3,4]thiadiazin-3-thiol], the IC50 in data set [1] stood at 46.7 ± 1.7 µM; on CDK-2 kinase, 0.165 ± 0.00314 µM; at EGFR kinase, 0.0896 ± 0.0024 µM. Moreover, in data set [1], the “cytotoxicity versus normal MCF-10A cells (in words)” value is “safe”.
On to `O=C(c1ccc2ccccc2c1)c1cn(-c2ccccc2)nc1C1=Nn2c(SCCSc3nnc4n3N=C(c3nn(-c5ccccc5)cc3C(=O)c3ccc5ccccc5c3)CS4)nnc2SC1` [Compound 8a, 1,2-Bis((6-(4-(2-naphthoyl)-1-phenyl-1H-pyrazol-3-yl))-7H-[1,2,4]triazolo[3,4-b][1,3,4]-thiadiazin-3-ylthio)ethane], for which the IC50 in data set [1] was determined as 38.9 ± 0.89 µM.
For the molecule `O=C(c1ccc2ccccc2c1)c1cn(-c2ccccc2)nc1C1=Nn2c(SCCCSc3nnc4n3N=C(c3nn(-c5ccccc5)cc3C(=O)c3ccc5ccccc5c3)CS4)nnc2SC1` [Compound 8b, 1,3-Bis((6-(4-(2-naphthoyl)-1-phenyl-1H-pyrazol-3-yl))-7H-[1,2,4]triazolo[3,4-b][1,3,4]-thiadiazin-3-ylthio)propane], the 50% inhibitory concentration (IC50) in data set [1] worked out at 29.6 ± 0.8 µM.
Same read-out and setting: under `O=C(c1ccc2ccccc2c1)c1cn(-c2ccccc2)nc1C1=Nn2c(nnc2SCc2ccccc2CSc2nnc3n2N=C(c2nn(-c4ccccc4)cc2C(=O)c2ccc4ccccc4c2)CS3)SC1` [Compound 10, 1,2-Bis((6-(4-(2-naphthoyl)-1-phenyl-1H-pyrazol-3-yl))-7H-[1,2,4]triazolo[3,4-b][1,3,4]-thiadiazin-3-ylthiomethyl)benzene] stands 31.2 ± 0.9 µM; under `C#Cc1cccc(Nc2ncnc3cc(OCCOC)c(OCCOC)cc23)c1` [Erlotinib, reference compound], at least 50 µM.
